ChEMBL document CHEMBL1781926, “Synthesis of 1-naphtylpiperazine derivatives as serotoninergic ligands and their evaluation as antiproliferative agents” (Eur J Med Chem, 2011)
Activity calls are given as the source filed them. The rule behind the calls is not given here.

Experiments:
D(2) dopamine receptor = D(2) dopamine receptor (Rattus norvegicus, UniProt P61169); experiment: Displacement of [3H]spiperone from dopamine D2 receptor in rat corpora striatum homogenates after 15 mins by liquid scintillation counting
[1] = target: 5-hydroxytryptamine receptor 2A (Rattus norvegicus, UniProt P14842); experiment: Displacement of [3H]Ketanserin from 5HT2A receptor in Sprague-Dawley rat frontal cortical homogenates after 15 mins
[2] = target: T1, 5-hydroxytryptamine receptor 1A (Rattus norvegicus, UniProt P19327); experiment: Displacement of [3H]8-OH-DPAT from 5HT1A receptor in Sprague-Dawley rat brain cortex homogenates after 30 mins by liquid scintillation counting; type: tissue-based
T1 sequence (P19327 whole entry): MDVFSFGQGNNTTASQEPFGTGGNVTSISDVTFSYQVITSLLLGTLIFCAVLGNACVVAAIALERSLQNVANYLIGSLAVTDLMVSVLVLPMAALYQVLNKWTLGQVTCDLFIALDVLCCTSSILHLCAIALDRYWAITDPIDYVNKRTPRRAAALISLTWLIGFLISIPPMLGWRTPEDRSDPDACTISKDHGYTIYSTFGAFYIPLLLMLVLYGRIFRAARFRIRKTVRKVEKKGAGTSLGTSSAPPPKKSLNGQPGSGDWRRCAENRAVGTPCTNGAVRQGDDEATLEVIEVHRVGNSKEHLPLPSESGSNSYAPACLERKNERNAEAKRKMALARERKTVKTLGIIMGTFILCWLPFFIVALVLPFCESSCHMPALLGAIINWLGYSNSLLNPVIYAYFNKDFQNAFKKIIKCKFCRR

D(1A) dopamine receptor = D(1A) dopamine receptor (Rattus norvegicus, UniProt P18901); experiment: Displacement of [3H]SCH 23390 from dopamine D1 receptor in rat corpora striatum homogenates after 15 mins by liquid scintillation counting
PC-3 [3] = experiment: Cell cycle arrest in human PC3 cells assessed as accumulation at G1 phase at 15 uM after 48 hrs using propidium iodide staining by flow cytometry (reference value: 54.14 %); type: functional
PC-3 [4] = experiment: Cell cycle arrest in human PC3 cells assessed as accumulation at S phase at 15 uM after 48 hrs using propidium iodide staining by flow cytometry (reference value: 38.16 %); type: functional
[5] = target: RAC-alpha serine/threonine-protein kinase (Homo sapiens) (UniProt P31749); experiment: Inhibition of serotonin-induced AKT phosphorylation in human PC3 cells at 15 uM after 48 hrs by Western blotting; type: cell-based; settings: PC-3
PC-3 [6] = experiment: Cell cycle arrest in human PC3 cells assessed as accumulation at G2 phase at 15 uM after 24 hrs using propidium iodide staining by flow cytometry (reference value: 18.19 %); type: functional
PC-3 [7] = experiment: Cell cycle arrest in human PC3 cells assessed as accumulation at S phase at 15 uM after 72 hrs using propidium iodide staining by flow cytometry (reference value: 37.73 %); type: functional
PC-3 [8] = experiment: Induction of apoptosis in human PC3 cells at 15 uM after 72 hrs using propidium iodide staining by flow cytometry (reference value: 1.79 %); type: functional
PC-3 [9] = experiment: Cell cycle arrest in human PC3 cells assessed as accumulation at G2 phase at 15 uM after 72 hrs using propidium iodide staining by flow cytometry (reference value: 20.18 %); type: functional
PC-3 [10] = experiment: Inhibition of serotonin-induced MAPK phosphorylation in human PC3 cells at 15 uM after 48 hrs by Western blotting; type: cell-based
PC-3 [11] = experiment: Cell cycle arrest in human PC3 cells assessed as accumulation at G1 phase at 15 uM after 72 hrs using propidium iodide staining by flow cytometry (reference value: 42.19 %); type: functional
PC-3 [12] = experiment: Induction of apoptosis in human PC3 cells at 15 uM after 48 hrs using propidium iodide staining by flow cytometry (reference value: 0.84 %); type: functional
PC-3 [13] = experiment: Antiproliferative activity against human PC3 cells assessed as growth inhibition after 96 hrs by SRB assay; type: functional, cell-based
PC-3 [14] = experiment: Cell cycle arrest in human PC3 cells assessed as accumulation at S phase at 15 uM after 24 hrs using propidium iodide staining by flow cytometry (reference value: 34.84 %); type: functional
PC-3 [15] = experiment: Induction of apoptosis in human PC3 cells at 15 uM after 24 hrs using propidium iodide staining by flow cytometry (reference value: 1.27 %); type: functional
PC-3 [16] = experiment: Cell cycle arrest in human PC3 cells assessed as accumulation at G1 phase at 15 uM after 24 hrs using propidium iodide staining by flow cytometry (reference value: 46.97 %); type: functional
PC-3 [17] = experiment: Cell cycle arrest in human PC3 cells assessed as accumulation at G2 phase at 15 uM after 48 hrs using propidium iodide staining by flow cytometry (reference value: 13.36 %); type: functional
[18] = target: T2, 5-hydroxytryptamine receptor 2C (Rattus norvegicus, UniProt P08909); experiment: Displacement of [3H]mesulergine from 5HT2C receptor in Sprague-Dawley rat frontal cortical homogenates after 15 mins
T2 sequence (P08909 whole entry): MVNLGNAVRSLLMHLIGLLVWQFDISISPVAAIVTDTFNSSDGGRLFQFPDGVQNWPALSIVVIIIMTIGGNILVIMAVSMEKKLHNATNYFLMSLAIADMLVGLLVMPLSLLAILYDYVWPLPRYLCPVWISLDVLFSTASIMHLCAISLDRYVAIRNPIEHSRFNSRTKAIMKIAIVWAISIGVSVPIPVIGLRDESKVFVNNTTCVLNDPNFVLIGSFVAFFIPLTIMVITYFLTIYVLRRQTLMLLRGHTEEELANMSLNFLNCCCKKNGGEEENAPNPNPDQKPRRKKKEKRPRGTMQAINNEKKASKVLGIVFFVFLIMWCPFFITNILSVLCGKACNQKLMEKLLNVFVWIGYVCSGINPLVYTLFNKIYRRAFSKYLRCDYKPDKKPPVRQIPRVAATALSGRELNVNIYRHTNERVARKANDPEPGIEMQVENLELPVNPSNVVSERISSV

[19] = target: T3, Adrenergic receptor alpha-1 (Rattus norvegicus, UniProt P15823+P23944+P43140); experiment: Displacement [3H]prazosin from alpha1 adrenergic receptor in rat brain cortex homogenates after 30 mins by liquid scintillation counting; type: tissue-based
T3 sequence (P15823 whole entry): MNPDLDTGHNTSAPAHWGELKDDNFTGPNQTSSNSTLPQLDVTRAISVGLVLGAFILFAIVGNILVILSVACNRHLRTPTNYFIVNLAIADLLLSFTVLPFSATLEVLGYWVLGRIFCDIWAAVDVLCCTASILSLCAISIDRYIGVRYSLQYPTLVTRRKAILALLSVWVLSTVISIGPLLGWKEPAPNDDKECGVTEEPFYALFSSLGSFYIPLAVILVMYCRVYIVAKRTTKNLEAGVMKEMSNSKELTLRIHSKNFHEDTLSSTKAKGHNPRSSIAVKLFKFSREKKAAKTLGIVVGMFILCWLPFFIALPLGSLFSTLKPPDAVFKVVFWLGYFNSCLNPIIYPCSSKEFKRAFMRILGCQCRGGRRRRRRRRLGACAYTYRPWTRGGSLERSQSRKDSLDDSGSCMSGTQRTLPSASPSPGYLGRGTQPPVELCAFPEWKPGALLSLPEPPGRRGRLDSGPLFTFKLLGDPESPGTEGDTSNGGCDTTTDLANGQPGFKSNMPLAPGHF
T3 sequence (P23944 whole entry): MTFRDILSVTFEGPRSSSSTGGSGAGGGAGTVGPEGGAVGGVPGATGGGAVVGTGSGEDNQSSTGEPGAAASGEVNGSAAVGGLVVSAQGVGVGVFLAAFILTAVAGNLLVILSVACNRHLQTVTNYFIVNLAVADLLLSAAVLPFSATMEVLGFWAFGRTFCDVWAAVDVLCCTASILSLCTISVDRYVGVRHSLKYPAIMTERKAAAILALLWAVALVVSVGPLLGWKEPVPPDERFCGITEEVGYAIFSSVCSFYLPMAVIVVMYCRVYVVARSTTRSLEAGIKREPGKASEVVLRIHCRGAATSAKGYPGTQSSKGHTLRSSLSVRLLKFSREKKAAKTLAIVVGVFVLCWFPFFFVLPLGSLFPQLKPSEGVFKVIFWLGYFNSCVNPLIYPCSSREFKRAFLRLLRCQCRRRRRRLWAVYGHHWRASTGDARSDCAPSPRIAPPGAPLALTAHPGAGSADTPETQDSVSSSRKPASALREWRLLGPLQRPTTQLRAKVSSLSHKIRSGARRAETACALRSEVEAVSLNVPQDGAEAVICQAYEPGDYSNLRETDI
T3 sequence (P43140 whole entry): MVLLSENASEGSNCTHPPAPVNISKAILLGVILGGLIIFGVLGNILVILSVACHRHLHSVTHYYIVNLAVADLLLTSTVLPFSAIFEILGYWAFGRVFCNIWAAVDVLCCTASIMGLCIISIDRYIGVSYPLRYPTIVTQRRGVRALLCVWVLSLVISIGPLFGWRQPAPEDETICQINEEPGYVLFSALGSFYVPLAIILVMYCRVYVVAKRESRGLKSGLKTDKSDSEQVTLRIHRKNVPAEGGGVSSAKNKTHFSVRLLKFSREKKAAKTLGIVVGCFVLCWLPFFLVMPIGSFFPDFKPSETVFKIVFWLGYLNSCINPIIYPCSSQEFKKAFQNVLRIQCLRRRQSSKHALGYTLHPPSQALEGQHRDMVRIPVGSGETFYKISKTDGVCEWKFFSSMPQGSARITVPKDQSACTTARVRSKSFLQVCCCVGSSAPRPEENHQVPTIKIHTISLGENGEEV

[20] = target: T4, Adrenergic receptor alpha-2 (Rattus norvegicus, UniProt P22086+P19328+P22909); experiment: Displacement [3H]yohimbine from alpha 2 adrenergic receptor in rat brain cortex homogenates after 30 mins by liquid scintillation counting; type: tissue-based
T4 sequence (P22086 whole entry): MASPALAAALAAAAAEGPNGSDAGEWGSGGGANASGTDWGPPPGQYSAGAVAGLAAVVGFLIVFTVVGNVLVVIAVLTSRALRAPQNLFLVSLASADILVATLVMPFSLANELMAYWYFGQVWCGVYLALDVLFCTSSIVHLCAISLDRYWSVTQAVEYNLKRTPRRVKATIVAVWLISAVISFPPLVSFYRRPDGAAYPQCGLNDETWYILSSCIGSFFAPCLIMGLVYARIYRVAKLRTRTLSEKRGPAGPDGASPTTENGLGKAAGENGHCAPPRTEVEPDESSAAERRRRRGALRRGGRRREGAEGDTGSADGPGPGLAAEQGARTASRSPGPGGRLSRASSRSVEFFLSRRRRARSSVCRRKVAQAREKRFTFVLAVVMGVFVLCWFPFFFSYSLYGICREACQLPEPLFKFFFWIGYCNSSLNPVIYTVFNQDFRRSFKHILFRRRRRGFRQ
T4 sequence (P19328 whole entry): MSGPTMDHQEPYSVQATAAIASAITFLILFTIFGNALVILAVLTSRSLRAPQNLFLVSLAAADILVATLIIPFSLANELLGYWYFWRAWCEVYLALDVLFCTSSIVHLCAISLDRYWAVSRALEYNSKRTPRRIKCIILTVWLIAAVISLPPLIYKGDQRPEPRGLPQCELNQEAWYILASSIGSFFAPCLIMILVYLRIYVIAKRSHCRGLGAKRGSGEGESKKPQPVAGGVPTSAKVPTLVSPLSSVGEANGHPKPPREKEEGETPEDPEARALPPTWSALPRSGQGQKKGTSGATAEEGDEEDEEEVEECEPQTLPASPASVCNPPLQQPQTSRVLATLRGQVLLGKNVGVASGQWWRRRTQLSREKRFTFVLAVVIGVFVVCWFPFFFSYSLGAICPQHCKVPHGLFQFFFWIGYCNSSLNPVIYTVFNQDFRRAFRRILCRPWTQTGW
T4 sequence (P22909 whole entry): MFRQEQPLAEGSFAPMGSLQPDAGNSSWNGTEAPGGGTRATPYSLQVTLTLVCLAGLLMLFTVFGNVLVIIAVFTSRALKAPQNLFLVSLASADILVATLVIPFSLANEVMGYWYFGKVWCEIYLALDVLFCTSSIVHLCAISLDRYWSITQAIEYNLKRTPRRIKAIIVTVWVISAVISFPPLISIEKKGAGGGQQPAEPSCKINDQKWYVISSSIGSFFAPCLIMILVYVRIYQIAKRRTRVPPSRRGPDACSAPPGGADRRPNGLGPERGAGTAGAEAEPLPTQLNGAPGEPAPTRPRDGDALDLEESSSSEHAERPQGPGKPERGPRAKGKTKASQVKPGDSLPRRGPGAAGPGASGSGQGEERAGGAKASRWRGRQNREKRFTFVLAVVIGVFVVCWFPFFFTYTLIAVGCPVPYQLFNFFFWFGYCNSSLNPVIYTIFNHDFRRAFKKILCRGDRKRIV

D(2) dopamine receptor, sequence (P61169 whole entry): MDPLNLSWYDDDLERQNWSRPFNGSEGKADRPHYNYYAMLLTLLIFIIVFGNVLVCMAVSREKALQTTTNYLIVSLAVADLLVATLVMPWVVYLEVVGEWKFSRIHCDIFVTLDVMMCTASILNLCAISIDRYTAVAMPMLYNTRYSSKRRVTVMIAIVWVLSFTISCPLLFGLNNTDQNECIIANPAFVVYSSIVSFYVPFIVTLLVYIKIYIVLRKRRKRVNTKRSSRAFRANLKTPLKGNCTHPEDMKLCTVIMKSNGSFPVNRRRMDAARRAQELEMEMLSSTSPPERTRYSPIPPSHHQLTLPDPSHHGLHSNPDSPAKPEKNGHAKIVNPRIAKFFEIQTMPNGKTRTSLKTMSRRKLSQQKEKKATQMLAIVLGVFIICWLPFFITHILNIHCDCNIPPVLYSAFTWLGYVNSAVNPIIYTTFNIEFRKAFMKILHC
RAC-alpha serine/threonine-protein kinase (Homo sapiens), sequence (P31749 whole entry): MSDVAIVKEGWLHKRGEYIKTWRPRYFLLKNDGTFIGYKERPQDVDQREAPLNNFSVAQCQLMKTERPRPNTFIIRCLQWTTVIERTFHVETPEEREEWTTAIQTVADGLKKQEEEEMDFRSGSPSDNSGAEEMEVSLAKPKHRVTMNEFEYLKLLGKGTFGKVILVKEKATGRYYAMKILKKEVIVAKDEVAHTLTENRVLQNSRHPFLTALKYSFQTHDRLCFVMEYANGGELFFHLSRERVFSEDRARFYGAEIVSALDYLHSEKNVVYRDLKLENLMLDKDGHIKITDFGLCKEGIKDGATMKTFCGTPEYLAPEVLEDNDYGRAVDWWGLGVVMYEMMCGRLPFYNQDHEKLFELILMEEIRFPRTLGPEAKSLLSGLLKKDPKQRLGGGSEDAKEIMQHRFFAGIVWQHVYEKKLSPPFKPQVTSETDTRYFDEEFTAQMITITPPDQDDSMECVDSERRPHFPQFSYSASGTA
D(1A) dopamine receptor, sequence (P18901 whole entry): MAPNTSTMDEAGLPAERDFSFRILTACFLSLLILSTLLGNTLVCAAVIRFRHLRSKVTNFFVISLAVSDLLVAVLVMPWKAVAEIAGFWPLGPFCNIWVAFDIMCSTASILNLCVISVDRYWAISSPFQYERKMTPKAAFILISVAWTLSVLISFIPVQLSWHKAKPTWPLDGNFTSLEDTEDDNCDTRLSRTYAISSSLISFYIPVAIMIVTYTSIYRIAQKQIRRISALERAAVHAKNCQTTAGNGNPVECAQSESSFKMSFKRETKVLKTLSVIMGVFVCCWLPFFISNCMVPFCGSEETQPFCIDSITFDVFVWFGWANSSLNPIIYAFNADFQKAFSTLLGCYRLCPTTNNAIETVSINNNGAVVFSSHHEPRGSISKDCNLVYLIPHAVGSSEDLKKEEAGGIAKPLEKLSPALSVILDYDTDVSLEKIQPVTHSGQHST
5-hydroxytryptamine receptor 2A, sequence (P14842 whole entry): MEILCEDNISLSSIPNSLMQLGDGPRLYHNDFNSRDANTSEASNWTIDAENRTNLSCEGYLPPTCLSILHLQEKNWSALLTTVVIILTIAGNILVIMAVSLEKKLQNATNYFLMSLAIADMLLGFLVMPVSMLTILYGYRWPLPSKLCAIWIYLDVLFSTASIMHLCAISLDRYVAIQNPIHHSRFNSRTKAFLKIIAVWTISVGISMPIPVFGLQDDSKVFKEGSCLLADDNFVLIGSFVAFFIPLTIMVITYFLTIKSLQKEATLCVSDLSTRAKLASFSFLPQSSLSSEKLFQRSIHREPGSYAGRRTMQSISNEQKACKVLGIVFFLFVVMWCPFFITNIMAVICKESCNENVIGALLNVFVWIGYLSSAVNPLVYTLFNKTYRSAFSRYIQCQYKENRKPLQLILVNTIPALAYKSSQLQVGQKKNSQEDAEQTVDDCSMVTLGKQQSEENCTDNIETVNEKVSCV

Row | Compound | Activity (PC-3 [3]) [%] | Activity (PC-3 [4]) [%] | Activity (PC-3 [6]) [%] | Activity (PC-3 [7]) [%] | Activity (PC-3 [8]) [%] | Activity (PC-3 [9]) [%] | Activity (PC-3 [11]) [%] | Activity (PC-3 [12]) [%] | growth inhibition (GI) (PC-3 [13]) | Activity (PC-3 [14]) [%] | Activity (PC-3 [15]) [%] | Activity (PC-3 [16]) [%] | Activity (PC-3 [17]) [%] | also measured
1 | N#CNC(=NCCCN1CCN(c2cccc3ccccc23)CC1)c1ccncc1 | – | – | – | – | – | – | – | – | – | – | – | – | – | Ki (D(2) dopamine receptor): 1.6 µM; Ki [1]: 0.172 µM; Ki [2]: > 10 µM; Ki (D(1A) dopamine receptor): > 10 µM
2 | Br.CCCN(CCC)[C@H]1CCc2cccc(O)c2C1 | 47.78 | 37.31 | 24.42 | 36.5 | 2.65 | 13.17 | 50.34 | 2.2 | inactive | 34.96 | 0.73 | 40.62 | 14.92 | inhibition [5]: Active; inhibition (PC-3 [10]): inactive
3 | N#C/N=C(\NCCCN1CCN(c2cccc3ccccc23)CC1)c1ccncc1 | – | – | – | – | – | – | – | – | inactive | – | – | – | – | Ki [18]: Not Active; Ki [19]: > 10 µM; Ki [20]: 0.878 µM
4 | Br.COc1ccccc1N1CCN(CCCCN2C(=O)c3ccccc3C2=O)CC1 | 49.53 | 35.59 | 24.74 | 43.02 | 3.05 | 11.26 | 45.73 | 1.77 | inactive | 38.16 | 2.42 | 37.1 | 14.88 | –
